Reference: patent publication US9481654B2, “Compositions and methods for inhibition of the JAK pathway” (Rigel Pharmaceuticals, Inc., priority 2006, dated 2016)
Structures can show the parent of a compound that is named as a salt.

test system: IL-4 stimulated CD23 upregulation in human Ramos B cells (JAK-1/JAK-3, Stat-6); assay: Assay for Ramos B-Cell Line Stimulated with IL-4 (CD23 upregulation, FACS); format: cell-based; conditions: Table III Example 3
Excerpt: One means of assaying for such inhibition is detection of the effect of the 2,4-pyrimidinediamine compounds on the upregulation of downstream gene products. In the Ramos/IL4 assay, B-cells are stimulated with the cytokine Interleukin-4 (IL-4) leading to the activation of the JAK/Stat pathway through phosphorylation of the JAK family kinases, JAK1 and JAK3, which in turn phosphorylate and activate the transcription factor Stat-6. […] To study the effect of inhibitors (e.g., the 2,4-substituted pyrimindinediamine compounds described herein) on the JAK1 and JAK3 kinases, human Ramos B cells are stimulated with human IL-4. 20 to 24 hours post stimulation, cells are stained for upregulation of CD23 and analyzed using flow cytometry (FACS).
B-cells stimulated with cytokine Interleukin-4 (IL-4) activate the JAK/Stat pathway through phosphorylation of the JAK family kinases, JAK-1 and JAK-3, which in turn phosphorylate and activate the transcription factor Stat-6. […] To study the effect of inhibitors on the JAK family kinases, human Ramos B cells are stimulated with human IL-4.
Cells were maintained at a density of 3.5×10^5. The day before the experiment, Ramos B-cells were diluted to 3.5×10^5 cells/mL to ensure that they were in a logarithmic growth phase.
Cells were spun down and suspended in RPMI with 5% serum. 5×10^4 cells were used per point in a 96-well tissue culture plate. Cells were pre-incubated with compound or DMSO (Sigma-Aldrich, St. Louis, Mo., Cat No. D2650) vehicle control for 1 hour in a 37° C. incubator. Cells were then stimulated with IL-4 (Peprotech Inc., Rocky Hill, N.J., Cat No. 200-04) for a final concentration of 50 units/mL for 20-24 hours. […] Detection was performed using a BD LSR I System Flow Cytometer, purchased from Becton Dickinson Biosciences of San Jose, Calif.

Structure (SMILES) | IC50 [µM]
Cc1cnc(Nc2cccc(S(=O)(=O)NC(=O)CNC(=O)OCc3ccccc3)c2)nc1Nc1cccc(CNS(=O)(=O)C2CC2)c1 [Compound I-142, N2-{3-N-[2-(benzoxycarbonylamino)-1-oxoethyl]aminosulfonyl}phenyl-N4-(3-cyclopropylsulfonylaminomethyl)phenyl-5-methyl-2,4-pyrimidinediamine] | 5.62
Cc1cnc(Nc2cccc(S(=O)(=O)NC(=O)[C@@H](NC(=O)OCc3ccccc3)C(C)C)c2)nc1Nc1cccc(CNS(=O)(=O)C2CC2)c1 [Compound I-144, N2-[3-N-(Cbz-L-Val)aminosulfonyl]phenyl-N4-(3-cyclopropylsulfonylaminomethyl)phenyl-5-methyl-2,4-pyrimidinediamine] | 7.72
Cc1cnc(Nc2cccc(S(=O)(=O)NC3(C(=O)O)CCCC3)c2)nc1Nc1cccc(CNS(=O)(=O)C2CC2)c1 [Compound I-145, N2-[3-N-(cycloleucine)aminosulfonyl]phenyl-N4-(3-cyclopropylsulfonylaminomethyl)phenyl-5-methyl-2,4-pyrimidinediamine hydrogen chloride salt] | 8.54
Cc1cnc(Nc2cccc(S(=O)(=O)N[C@H](C(=O)O)C(C)C)c2)nc1Nc1cccc(CNS(=O)(=O)C2CC2)c1 [Compound I-146, N2-[3-N-(L-Val)aminosulfonyl]phenyl-N4-(3-cyclopropylsulfonylaminomethyl)phenyl-5-methyl-2,4-pyrimidinediamine hydrogen chloride salt] | 12.3
Cc1cnc(Nc2cccc(S(=O)(=O)NC(=O)C3(NC(=O)OC(C)(C)C)CCCC3)c2)nc1Nc1cccc(CNS(=O)(=O)C2CC2)c1 [Compound I-148, N2-[3-N-(Boc-cycloleucine)aminosulfonyl]phenyl-N4-(3-cyclopropylsulfonylaminomethyl)phenyl-5-methyl-2,4-pyrimidinediamine] | 16.2
Cc1cnc(Nc2cccc(S(=O)(=O)Nc3cccnc3)c2)nc1Nc1ccc(CNS(=O)(=O)C2CC2)cc1 [Compound I-174, N4-(4-cyclopropylsulfonylaminomethyl)phenyl-5-methyl-N2-[3-(3-pyridyl)aminosulfonyl]phenyl-2,4-pyrimidinediamine] | 1.12
CC(=O)NS(=O)(=O)c1cccc(Nc2ncc(C)c(Nc3cccc(CN(C(C)=O)S(=O)(=O)C4CC4)c3)n2)c1 [Compound I-193, N2-(3-acetamidosulfonyl)phenyl-N4-[3-(N-acetyl-N-cyclopropylsulfonyl)aminomethyl]phenyl-5-methyl-2,4-pyrimidinediamine] | 1.89
CC(=O)NS(=O)(=O)c1ccc(Nc2ncc(C)c(Nc3ccc(CN(C(C)=O)S(=O)(=O)C4CC4)cc3)n2)cc1 [Compound I-194, N2-(4-acetamidosulfonyl)phenyl-N4-[4-(N-acetyl-N-cyclopropylsulfonyl)aminomethyl]phenyl-5-methyl-2,4-pyrimidinediamine] | 1.65
Cc1cnc(Nc2cccc(S(=O)(=O)NC(=O)C(C)C)c2)nc1Nc1cccc(CN(C(=O)C(C)C)S(=O)(=O)C2CC2)c1 [Compound I-198, N4-[3-(N-cyclopropylsulfonyl-N-isobutyryl)aminomethyl]phenyl-N2-(3-isobutyrylaminosulfonyl)phenyl-5-methyl-2,4-pyrimidinediamine] | 2.05
Cc1cnc(Nc2ccc(S(=O)(=O)NC(=O)C(C)C)cc2)nc1Nc1ccc(CN(C(=O)C(C)C)S(=O)(=O)C2CC2)cc1 [Compound I-199, N4-[4-(N-cyclopropylsulfonyl-N-isobutyryl)aminomethyl]phenyl-N2-(4-isobutyrylaminosulfonyl)phenyl-5-methyl-2,4-pyrimidinediamine] | 1.27
CCCC(=O)NS(=O)(=O)c1cccc(Nc2ncc(C)c(Nc3cccc(CN(C(=O)CCC)S(=O)(=O)C4CC4)c3)n2)c1 [Compound I-203, N2-(3-butyrylaminosulfonyl)phenyl-N4-[3-(N-butyryl-N-cyclopropylsulfonyl)aminomethyl]phenyl-5-methyl-2,4-pyrimidinediamine] | 3.02
CCCC(=O)NS(=O)(=O)c1ccc(Nc2ncc(C)c(Nc3ccc(CN(C(=O)CCC)S(=O)(=O)C4CC4)cc3)n2)cc1 [Compound I-204, N2-(4-butyrylaminosulfonyl)phenyl-N4-[4-(N-butyryl-N-cyclopropylsulfonyl)aminomethyl]phenyl-5-methyl-2,4-pyrimidinediamine] | 1.04
CCCCCC(=O)NS(=O)(=O)c1cccc(Nc2ncc(C)c(Nc3cccc(CN(C(=O)CCCCC)S(=O)(=O)C4CC4)c3)n2)c1 [Compound I-218, N4-[3-(N-cyclopropylsulfonyl-N-hexanoyl)aminomethyl]phenyl-N2-(3-hexanoylaminosulfonyl)phenyl-5-methyl-2,4-pyrimidinediamine] | 3.8

same assay, conditions: Table III Example 3, sodium salt

Structure (SMILES) | IC50 [µM]
Cc1cnc(Nc2cccc(S(=O)(=O)NC(=O)CNC(=O)OCc3ccccc3)c2)nc1Nc1cccc(CNS(=O)(=O)C2CC2)c1 [Compound I-143, N2-{3-N-[2-(benzoxycarbonylamino)-1-oxoethyl]aminosulfonyl}phenyl-N4-(3-cyclopropylsulfonylaminomethyl)phenyl-5-methyl-2,4-pyrimidinediamine sodium salt] | 7.29
CC(=O)NS(=O)(=O)c1cccc(Nc2ncc(C)c(Nc3cccc(CN(C(C)=O)S(=O)(=O)C4CC4)c3)n2)c1 [Compound I-196, N2-(3-acetamidosulfonyl)phenyl-N4-[3-(N-acetyl-N-cyclopropylsulfonyl)aminomethyl]phenyl-5-methyl-2,4-pyrimidinediamine sodium salt] | 2.05
CC(=O)NS(=O)(=O)c1ccc(Nc2ncc(C)c(Nc3ccc(CN(C(C)=O)S(=O)(=O)C4CC4)cc3)n2)cc1 [Compound I-197, N2-(4-acetamidosulfonyl)phenyl-N4-[4-(N-acetyl-N-cyclopropylsulfonyl)aminomethyl]phenyl-5-methyl-2,4-pyrimidinediamine sodium salt] | 1.55
Cc1cnc(Nc2cccc(S(=O)(=O)NC(=O)C(C)C)c2)nc1Nc1cccc(CN(C(=O)C(C)C)S(=O)(=O)C2CC2)c1 [Compound I-200, N4-[3-(N-cyclopropylsulfonyl-N-isobutyryl)aminomethyl]phenyl-N2-(3-isobutyrylaminosulfonyl)phenyl-5-methyl-2,4-pyrimidinediamine sodium salt] | 2.31
Cc1cnc(Nc2ccc(S(=O)(=O)NC(=O)C(C)C)cc2)nc1Nc1ccc(CN(C(=O)C(C)C)S(=O)(=O)C2CC2)cc1 [Compound I-201, N4-[4-(N-cyclopropylsulfonyl-N-isobutyryl)aminomethyl]phenyl-N2-(4-isobutyrylaminosulfonyl)phenyl-5-methyl-2,4-pyrimidinediamine sodium salt] | 1.21
CCCC(=O)NS(=O)(=O)c1cccc(Nc2ncc(C)c(Nc3cccc(CN(C(=O)CCC)S(=O)(=O)C4CC4)c3)n2)c1 [Compound I-205, N2-(3-butyrylaminosulfonyl)phenyl-N4-[3-(N-butyryl-N-cyclopropylsulfonyl)aminomethyl]phenyl-5-methyl-2,4-pyrimidinediamine sodium salt] | 3.44
CCCC(=O)NS(=O)(=O)c1ccc(Nc2ncc(C)c(Nc3ccc(CN(C(=O)CCC)S(=O)(=O)C4CC4)cc3)n2)cc1 [Compound I-206, N2-(4-butyrylaminosulfonyl)phenyl-N4-[4-(N-butyryl-N-cyclopropylsulfonyl)aminomethyl]phenyl-5-methyl-2,4-pyrimidinediamine sodium salt] | 0.946
